Reference: patent US8729075B2, “Glucosylceramide synthase inhibition for the treatment of collapsing glomerulopathy and other glomerular disease” (Genzyme Corporation, priority 2008, dated 2014)

These compounds were tested on GM3 (assay: GM3 Elisa assay). Settings: 48 h, Table 2; B16-FO cells, 2 days incubation; read-out: IC50_uM_Mean.
Format: cell-based
Method: B16-FO cells from ATCC (American Tissue Culture Collection) were grown in DMEM media (ATCC) with 10% Fetal Bovine Serum (Hyclone) and Pen/Step/Glutamine (Biowhittaker). 4000 cells per well were plated on collagen coated plates (BD) and allowed to attach for 6 hours in an incubator (37 degrees, 5% CO2). After 6 hours the compounds and controls were added to the wells, the plates mixed and returned to the incubator for 2 days. Day of assay the cells were fixed for 20 minutes with 1% formaldehyde and then washed with Tris Buffered Saline (TBS) 3 times, 150 μl of TBS was left in the wells and 50 μl of goat serum (Invitrogen) was added, the plates mixed and incubated for 1 hour at room temperature. The plates were flicked and the cells incubated with the monoclonal Antibody to GM3 (NeuAc) (Cosmo) for 45 minutes as room temperature. The plates were then washed 3 times with TBS, leaving 150 μl of TBS in the wells and Peroxidase AffinPure F (ab′) 2 frag Gt Anti-mouse IgM, μ Chain Specific (Jackson Immno Research) was added in 50 μl, the plates mixed and incubated for 45 minutes at room temperature. The plates were washed 3 times with TBS, flicked and blotted and 100 μl of Quantablu (Pierce) was added to the wells and incubated for 1 hour then read on a Fluorometer at Ex 325 and Em 420. The data was then analyzed using standard programs.
`Cc1ccc(C(=O)CCC(=O)N[C@H](CC2CCCC2)[C@H](O)c2ccc3c(c2)CCCC3)cc1` [Compound 264] showed an IC50 of at most 100 nM.
`COC(=O)CO[C@H](c1ccc2c(c1)OCO2)[C@@H](CN1CCCC1)NC(=O)CCOc1ccc(OC)cc1` [Compound 275] gave an IC50 of at most 100 nM.

Same assay, conditions: 48 h, Table 3; B16-FO cells, 2 days incubation; read-out: IC50_uM_Mean
`COc1ccc(CCCCN(C(=O)CCCCC(=O)c2ccc(OC)cc2)[C@H](CN2CCCC2)[C@H](O)c2ccc(O)cc2)cc1` [Compound 429] showed an IC50 of 3000 to 10000 nM.
`CCCCCCCC(=O)N[C@H](CN1CCC(C)(C)C1)[C@@H](O)c1ccc2c(c1)OCCO2` [Compound 521] gave an IC50 of 3000 to 10000 nM.
Compound `COc1ccc([C@@H](O)[C@@H](CN2CCCC2)NC(=O)CCCCCC(C)=O)cc1` [Compound 664] has an IC50 of 1000 to 3000 nM.
`COc1ccc(OCCC(=O)N[C@@H](CN2CCCC2)[C@@H](O)c2ccc3c(c2)OCCO3)cc1` [Compound 674] was tested, and the IC50 was 3000 to 10000 nM.
Compound `COc1ccc(C(=O)CCCCCC(=O)N[C@H](CN2CCC(C)(C)C2)[C@@H](O)c2ccc3c(c2)OCCO3)cc1` [Compound 520] has an IC50 of 1000 to 3000 nM.
For `CCCCOc1ccc([C@@H](O)[C@@H](CN2CC[C@@H](O)C2)NC(=O)CCCCCOCCF)cc1` [Compound 661], the IC50 was 1000 to 3000 nM.
For `CCCCOc1ccc([C@@H](O)[C@@H](CN2CC[C@@H](F)C2)NC(=O)CCCCCCCOC)cc1` [Compound 584], the IC50 was 100 to 1000 nM.
For `CCCCCCCCCCCCCCCC(=O)N[C@H](CN(C)Cc1ccccc1)[C@@H](O)c1ccc2c(c1)OCCO2` [Compound 682], the IC50 was 3000 to 10000 nM.
`CCCNC[C@@H](NC(=O)CCCCCC(=O)c1ccc(OC)cc1)[C@H](O)c1ccc2c(c1)OCCO2` [Compound 467] was tested, and the IC50 was 100 to 1000 nM.
Work on `O=C(CCCCCC1CCOCC1)N[C@H](CN1CC[C@@H](F)C1)[C@H](O)c1cccc(OCc2ccccc2)c1` [Compound 574] yielded an IC50 of 100 to 1000 nM.
`O=C(CCCCS(=O)(=O)C12CC3CCCC(C1)C(C3)C2)N[C@H](CN1CCCC1)[C@@H](O)c1ccc2c(c1)OCCO2` (stereo partly shown) [Compound 560] gave an IC50 of 100 to 1000 nM.
`CCCCCCCC(=O)NC(CN1[C@H](C)CC[C@H]1C)[C@H](O)c1ccc2c(c1)OCCO2` (stereo partly shown) [Compound 549] was tested, and the IC50 was 3000 to 10000 nM.
`N#CCCCCCC(=O)C[C@H](CN1CCCC1)[C@H](O)c1ccc2c(c1)OCCO2` [Compound 632] was tested, and the IC50 was 3000 to 10000 nM.
`COc1ccc(OCCC(=O)N[C@H](CN2CCCC2)[C@@H](O)c2ccc3c(c2)OCCO3)cc1` [Compound 676] gave an IC50 of 3000 to 10000 nM.
Work on `O=C(CCCCOCC(F)(F)F)N[C@H](CN1CCCC1)[C@H](O)c1ccc(CCc2ccccc2)cc1` [Compound 647] yielded an IC50 of 100 to 1000 nM.
`CCCCCCCC(=O)N[C@H](CN1CCC[C@@H]1C)[C@H](O)c1ccc2c(c1)OCCO2` [Compound 527] gave an IC50 of 1000 to 3000 nM.
Compound `COc1ccc(OCCC(=O)N[C@H](CN2C(C)CCCC2C)[C@@H](O)c2ccc3c(c2)OCCO3)cc1` (stereo partly shown) [Compound 598] has an IC50 of 3000 to 10000 nM.
In the case of `COc1ccc(C(=O)CCCCCC(=O)N[C@H](CN2CCC[C@@H]2C)[C@H](O)c2ccc3c(c2)OCCO3)cc1` [Compound 525], the IC50 is reported as at most 100 nM.
Work on `COC[C@H]1CCCN1C[C@@H](NC(=O)CCOc1ccc(OC)cc1)[C@H](O)c1ccc2c(c1)OCCO2` [Compound 538] yielded an IC50 of 3000 to 10000 nM.
For `COc1ccc(OCCC(=O)N[C@@H](CN2CCCC2)[C@H](O)c2ccc3c(c2)OCCO3)cc1` [Compound 675], the IC50 was 3000 to 10000 nM.
`COc1ccc(C(=O)CCCCCC(=O)NC(CN2[C@H](C)CC[C@H]2C)[C@H](O)c2ccc3c(c2)OCCO3)cc1` (stereo partly shown) [Compound 548] was tested, and the IC50 was 1000 to 3000 nM.
`COc1ccc(C(=O)CCCCCC(=O)N[C@H](CN2CC[C@@H](O)C2)[C@@H](O)c2ccc3c(c2)OCCO3)cc1` [Compound 518] showed an IC50 of 100 to 1000 nM.
For `COc1ccc(C(=O)CCCCC(=O)NC(CN2CCCC2)[C@H](O)c2ccc(OCCC3CCCCC3)cc2)cc1` (stereo partly shown) [Compound 419], the IC50 was at most 100 nM.
In the case of `COCOc1ccc(C(=O)CCCC(=O)N[C@H](CN2CC[C@H](O)C2)[C@H](O)c2ccc(OC(C)C)cc2)cc1` [Compound 737], the IC50 is reported as 100 to 1000 nM.
`COc1ccc(C(=O)CCCCCC(=O)N[C@H](CNC(C)C)[C@@H](O)c2ccc3c(c2)OCCO3)cc1` [Compound 465] was tested, and the IC50 was 100 to 1000 nM.
Compound `Cc1noc(CCCCC(=O)N[C@@H](CC2CCCC2)[C@H](O)c2ccc3c(c2)OCCO3)n1` [Compound 652] has an IC50 of 3000 to 10000 nM.
For `COc1ccc(C(=O)CCCCCC(=O)N[C@H](CN2CCC[C@H]2C)[C@H](O)c2ccc3c(c2)OCCO3)cc1` [Compound 529], the IC50 was at most 100 nM.
In the case of `COc1ccc(OCCC(=O)N[C@H](CN2CCC[C@@H]2C)[C@H](O)c2ccc3c(c2)OCCO3)cc1` [Compound 526], the IC50 is reported as 100 to 1000 nM.
In the case of `COc1ccc(OCCC(=O)NC(CN2[C@H](C)CC[C@H]2C)[C@H](O)c2ccc3c(c2)OCCO3)cc1` (stereo partly shown) [Compound 550], the IC50 is reported as 3000 to 10000 nM.
For `COC[C@@H]1CCCN1CC(NC(=O)CCCCCC(=O)c1ccc(OC)cc1)[C@@H](O)c1ccc2c(c1)OCCO2` (stereo partly shown) [Compound 533], the IC50 was 100 to 1000 nM.
In the case of `COCCOc1ccc(C(O)[C@@H](CN2CCCC2)NC(=O)CCCCC(=O)c2ccc(OC)cc2)cc1` (stereo partly shown) [Compound 417], the IC50 is reported as at most 100 nM.
`COc1ccc(OCCC(=O)N[C@H](CN2CCC[C@H]2C)[C@H](O)c2ccc3c(c2)OCCO3)cc1` [Compound 528] gave an IC50 of 1000 to 3000 nM.
`Cc1nccn1C[C@@H](NC(=O)CCCCCC(=O)c1ccc(F)cc1)[C@H](O)c1ccc2c(c1)OCCO2` [Compound 569] was tested, and the IC50 was 3000 to 10000 nM.

Same assay, conditions: 48 h; Table 1; B16-FO cells, 2 days incubation; read-out: IC50_uM_Mean
`COc1ccc(OCCC(=O)N[C@H](CN2CCCC2)[C@H](O)c2ccc3c(c2)OCCO3)cc1` [Compound 61, N-((1R,2R)-1-(2,3-dihydrobenzo[β][1,4]dioxin-6-yl)-1-hydroxy-3-(pyrrolidin-1-yl)propan-2-yl)-3-(4-methoxyphenoxy)propanamide] gave an IC50 of at most 100 nM.

Same assay, conditions: Table 1; B16-FO cells, 2 days incubation; read-out: IC50_uM_Mean
In the case of `CC(=O)CCc1ccc(OCCC(=O)N[C@H](CN2CCCC2)[C@H](O)c2ccc3c(c2)OCCO3)cc1` [Compound 193, N-((1R,2R)-1-(2,3-dihydrobenzo[b][1,4]dioxin-6-yl)-1-hydroxy-3-(pyrrolidin-1-yl)propan-2-yl)-3-(4-(3-oxobutyl)phenoxy)propanamide(2R,3R)-2,3-dihydroxysuccinate], the IC50 is reported as 100 to 1000 nM.
